According to US20050277161A1, “Phosphopeptide antigens associated with MHC molecules” (priority 2004, published 2005):
Non-standard residues stand in square brackets, D forms with d. No end group written: not given here. pS = N[C@@H](COP(=O)(O)O)C(=O)O

Test system: COV413.AAD.A4 ovarian carcinoma, DM331.AAD.A4 and SLM2.AAD.A1 melanomas, MCF7.AAD.A2 and MDAMB231.AAD breast carcinomas, and JY EBV-BLCL
Assay: Recognition of naturally processed phosphopeptides on cancer cells by phosphopeptide-specific CTL (murine IFNγ ELISA)
Type: cell-based
Conditions: for recognition of the phosphopeptide on cancer cell lines by phosphopeptide-specific CTL (murine IFNγ in supernatant): murine CTL lines 50,000/well incubated 24 hours with 25,000 cancer cells/well, ovarian carcinoma, melanoma and breast carcinoma lines; for recognition of the phosphopeptide on the control cell line by phosphopeptide-specific CTL (murine IFNγ in supernatant): murine CTL lines 50,000/well incubated 24 hours with 25,000 cells/well, control JY EBV-BLCL
Experimental: FIG. 1, comprising FIGS. 1A and 1B, is a graphic illustration of the recognition of naturally processed and presented phosphorylated peptides on cancer cells by the phosphopeptide-specific CTL. Phosphopeptide-specific CTL were incubated with the following cancer cell lines or EBV-transformed B lymphoblastoid cell lines (BLCL): COV413.AAD.A4 ovarian carcinoma, DM331 .AAD.A4 and SLM2.AAD.A1 melanomas, MCF7.AAD.A2 and MDAMB231.AAD breast carcinomas, and JY EBV-BLCL. Supernatants were harvested and evaluated for the presence of murine IFNγ (produced by murine CTL lines). […] The ordinate indicates murine IFNγ in pg/ml. The abscissa indicates each cell line.
CTL specific for two of the antigen peptides were generated by long term culture with the peptides. Two CTL lines specific for the antigen peptide GLLGpSPVRA, lines 6850 and 6960, SEQ ID NO: 13, and two CTL lines specific for the antigen peptide RVApSPTSGV, SEQ ID NO: 14, lines 5183 and 63 were used to detect these two antigen peptides on cancer cells. The phosphopeptide-specific CTL (50,000 CTL/well) were incubated 24 hours with the following cancer cell lines or EBV-transformed B lymphoblastoid cell lines (BLCL) (25,000 cells/well): COV413.AAD.A4 ovarian carcinoma, DM331.AAD.A4 and SLM2.AAD.A1 melanomas, MCF7.AAD.A2 and MDAMB231.AAD breast carcinomas, and JY EBV-BLCL. Supernatants were harvested 24 hours later and evaluated for the presence of murine IFNγ (produced by murine CTL lines) by ELISA (eBioscience Ready-Set-go murine IFNγ ELISA kit).

Row | Substance | recognition of the phosphopeptide on cancer cell lines by phosphopeptide-specific CTL (murine IFNγ in supernatant) | recognition of the phosphopeptide on the control cell line by phosphopeptide-specific CTL (murine IFNγ in supernatant)
1 | GLLGpSPVRA (GLLG[pS]PVRA; listed as Homo sapiens) [phosphopeptide from CDC25b:p63; HLA-A2.1] | recognize the phosphopeptide on all the cancer cell lines | not the control cell line
2 | RVApSPTSGV (RVA[pS]PTSGV; listed as Homo sapiens) [phosphopeptide from Insulin receptor substrate-2; HLA-A2.1] | recognize the phosphopeptide on all the cancer cell lines | not the control cell line
